The test addresses T1, EEF2K (Homo sapiens, UniProt O00418).
T1 construct: purchased Thermo Fisher Scientific (Life Technologies) SelectScreen
Put plainly: SelectScreen Z'LYTE. The test is classed as biochemical. The essentials: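 Percent values come from Thermo SelectScreen profiling of NU5455, combining activity and binding assays. CSF1R was run in Z'LYTE format at Km app ATP, and CAMK1 in Adapta format with ATP listed at 10.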

Regarding `CN(C(=O)CN1CCOCC1)c1ccc2sc3c(-c4cccc5c(=O)cc(N6CC7CCC(C6)O7)oc45)cccc3c2c1` [NU5455], the inhibition at 1 µM is -2.4%.

By inhibition is commonly meant the drop in the measured response relative to a control, in per cent.

Source of the values: article PMC6934184, “Selective DNA-PKcs inhibition extends the therapeutic index of localized radiotherapy and chemotherapy” (The Journal of Clinical Investigation, 2019).
